Results as given in PMC4208696 (Biophysical chemistry, 2014).
Read-outs that look alike come from different tables or passages of the source.

Key:
[1] = target: CaM1–148 (full-length calmodulin) (Homo sapiens, UniProt P0DP23); type: binding, mammalian; details: for ΔG (calcium-saturated): 10 mM CaCl2; for ΔG (calcium-saturated) / ΔG (apo): free energy corresponding to estimated Kd, 22 °C; for Fold Change = (Kd, Apo)/(Kd, Ca^2+): apo vs calcium-saturated; for abundance of the apo CaM-peptide complex: calculated, start of calcium titration, 6 μM CaM1–148 with 2 eq (12 μM) peptide
[2] = target: CaM1–80 (CaM N-domain) (Homo sapiens, UniProt P0DP23); type: binding, mammalian; details: for ΔG (calcium-saturated): 10 mM CaCl2; for ΔG (calcium-saturated) / ΔG (apo): free energy corresponding to estimated Kd, 22 °C; for Fold Change = (Kd, Apo)/(Kd, Ca^2+): apo vs calcium-saturated; for abundance of the apo CaM-peptide complex: calculated, start of calcium titration, 6 μM CaM1–80 with 2 eq (12 μM) peptide
[3] = target: CaM76–148 (CaM C-domain) (Homo sapiens, UniProt P0DP23); type: binding, mammalian; details: for ΔG (calcium-saturated): 10 mM CaCl2; for ΔG (calcium-saturated) / ΔG (apo): free energy corresponding to estimated Kd, 22 °C; for Fold Change = (Kd, Apo)/(Kd, Ca^2+): apo vs calcium-saturated; for abundance of the apo CaM-peptide complex: calculated, start of calcium titration, 6 μM CaM76–148 with 2 eq (12 μM) peptide
[4] = tested on: CaM1–148, sites I and II; type: binding, mammalian; details: for increase in calcium-binding affinity (more favorable than without peptide) / ΔΔG2^app = ΔG2^app(CaM + Peptide) − ΔG2 (CaM Alone): 2 eq peptide, sites I and II
[5] = tested on: CaM1–80, sites I and II; type: binding, mammalian; details: 2 eq peptide
[6] = tested on: CaM1–148, sites III and IV; type: binding, mammalian; details: for increase in calcium-binding affinity (more favorable than without peptide) / ΔΔG2^app = ΔG2^app(CaM + Peptide) − ΔG2 (CaM Alone): 2 eq peptide, sites III and IV; for effect of N-domain on calcium-binding affinity of the C-domain: CaM1–148 vs CaM76–148, with 2 eq peptide
[7] = tested on: CaM76–148, sites III and IV; type: binding, mammalian; details: for increase in calcium-binding affinity (more favorable than without peptide) / ΔΔG2^app = ΔG2^app(CaM + Peptide) − ΔG2 (CaM Alone): 2 eq peptide
[8] = tested on: full-length CaM; details: absence of magnesium, ref [46]; cited from earlier work
[9] = CaM1–148 with 2 eq peptide (Fig. 5A)

| Substance | ΔG (calcium-saturated) [1] | Fold Change = (Kd, Apo)/(Kd, Ca^2+) [1] | ΔG (apo) [1] | abundance of the apo CaM-peptide complex [1] | ΔG (calcium-saturated) [2] | Fold Change = (Kd, Apo)/(Kd, Ca^2+) [2] | ΔG (apo) ([2]; apo) | abundance of the apo CaM-peptide complex [2] | ΔG (calcium-saturated) [3] | Fold Change = (Kd, Apo)/(Kd, Ca^2+) [3] | ΔG (apo) [3] | abundance of the apo CaM-peptide complex [3] | increase in calcium-binding affinity (more favorable than without peptide) [4] | ΔΔG2^app = ΔG2^app(CaM + Peptide) − ΔG2 (CaM Alone) [4] | increase in calcium-binding affinity (more favorable than without peptide) [5] | ΔΔG2^app = ΔG2^app(CaM + Peptide) − ΔG2 (CaM Alone) [5] | increase in calcium-binding affinity (more favorable than without peptide) [6] | ΔΔG2^app = ΔG2^app(CaM + Peptide) − ΔG2 (CaM Alone) [6] | effect of N-domain on calcium-binding affinity of the C-domain [6] | increase in calcium-binding affinity (more favorable than without peptide) [7] | also measured |
| --- | --- | --- | --- | --- | --- | --- | --- | --- | --- | --- | --- | --- | --- | --- | --- | --- | --- | --- | --- | --- | --- |
| Ac-KSKKAVWHKLLSKQRRRAVVACFRMTPLYN-NH2 [hRyR1(3614–3643)p] | -12.15 kcal/mol | ~7000 | -7.02 ± 0.25 kcal/mol | ~ 64% | -7.59 ± 0.22 kcal/mol | ~600 | -3.81 kcal/mol | ~ 1% | -10.80 kcal/mol | ~2500 | -6.22 ± 0.10 kcal/mol | ~ 33% | 3.78 ± 0.20 kcal/mol | -3.78 ± 0.18 kcal/mol | 2.62 ± 0.11 kcal/mol | -2.62 ± 0.11 kcal/mol | 3.83 ± 0.14 kcal/mol | -3.83 ± 0.14 kcal/mol | no significant effect | 3.41 ± 0.14 kcal/mol | Kd [1]: ≤ 1 nM; binding in words ([1]; apo (absence of calcium)): low micromolar Kd; binding in words ([1]; high calcium concentrations): sub-nanomolar Kd; weaker binding of CaM1–80 than CaM1–148 and CaM76–148 (fold) ([2]; abstract, CaM1–80 required calcium): ~ 250 fold; affinity less favorable than that of apo CaM1–148 (factor) ([2]; apo): 220; calcium dependence of interaction in words ([2]; apo and calcium-saturated): requires calcium for association; affinity higher than for hRyR1(1975–1999)p (fold) ([2]; calcium-saturated N-domain): approximately 5 fold; ΔΔG (hRyR1(3614–3643)p − hRyR1(1975–1999)p) ([2]; calcium-saturated N-domain): -0.97 ± 0.24 kcal/mol; Kd [3]: ≤ 10 nM; binds (Ca^2+)2-CaMC more favorably than apo CaMC ([3]; (Ca^2+)2-CaMC vs apo CaMC): ~ 5 kcal/mol; calcium dependence of interaction in words ([3]; apo and calcium-saturated): calcium-independent manner; C-domain fragment affinity more favorable than N-domain fragment ([3]; both in the presence and in the absence of calcium): 2 orders of magnitude; ΔΔG (hRyR1(3614–3643)p − hRyR1(1975–1999)p) ([3]; calcium-saturated C-domain): ≤ -4.00 kcal/mol; ΔΔG2^app = ΔG2^app(CaM + Peptide) − ΔG2 (CaM Alone) ([4]; listed as 3614): -3.78 ± 0.20 kcal/mol; effect of the presence of the C-domain on calcium-binding free energy of sites I and II (more favorable by) ([4]; CaM1–148 vs CaM1–80, with 2 eq peptide): 1.16 ± 0.25 kcal/mol; midpoint of calcium titration, N-domain [4, 9]: ~ 1 μM; midpoint of calcium titration, C-domain [6, 9]: ~ 100 nM; ΔΔG2^app = ΔG2^app(CaM + Peptide) − ΔG2 (CaM Alone) [7]: -3.41 ± 0.14 kcal/mol |
| Ac-SRYGLLIKAFSMTAAETARRTREFR-NH2 [hRyR1(1975–1999)p] | -8.34 ± 0.01 kcal/mol | ~1300 | -4.14 kcal/mol | < 2% | -6.62 ± 0.09 kcal/mol | ~600 | -2.91 kcal/mol | < 2% | -6.80 ± 0.05 kcal/mol | ~70 | -4.30 kcal/mol | < 2% | 2.10 ± 0.29 kcal/mol | -2.10 kcal/mol | 0.82 ± 0.15 kcal/mol | -0.82 kcal/mol | 1.09 ± 0.23 kcal/mol | -1.09 ± 0.23 kcal/mol | no significant effect | 0.69 ± 0.09 kcal/mol | saturation of peptide (anisotropy) ([1]; calcium-saturated, at ~100 μM): greater than 85%; saturation of peptide (anisotropy) ([2]; calcium-saturated (10 mM CaCl2), at ~100 μM CaM1–80): greater than 85%; saturation of peptide (anisotropy) ([3]; calcium-saturated, at ~100 μM): greater than 85%; ΔΔG2^app = ΔG2^app(CaM + Peptide) − ΔG2 (CaM Alone) ([4]; listed as 1975): -2.10 ± 0.29 kcal/mol; ΔΔG2^app = ΔG2^app(CaM + Peptide) − ΔG2 (CaM Alone) ([5]; listed as 1975): -0.82 ± 0.15 kcal/mol; ΔΔG2^app = ΔG2^app(CaM + Peptide) − ΔG2 (CaM Alone) [7]: -0.69 ± 0.09 kcal/mol; interaction with apo calmodulin (ITC) in words [8]: failed to detect an interaction |
| CaM76–148: CaM C-domain, encompassing residues 76 to 148 | – | – | – | – | – | – | – | – | – | – | – | – | – | – | – | – | – | – | – | – | ΔΔG2 (CaM76–148 vs CaM1–148) ([7]; CaM alone): 0.17 ± 0.04 kcal/mol |
